Measurements taken from patent US20150315188A1, “COMPOUNDS AND METHODS FOR TREATMENT OF HYPERTENSION” (MEDIVATION TECHNOLOGIES, INC., priority 2012, published 2015).

Legend:
Design in all cases: purchased Milipore (Millipore)
[1] = target: T1, Human adrenergic α1B receptor (Homo sapiens, UniProt P35368); experiment: Radioligand binding, adrenergic α1B (Protocol Group B); settings: Protocol Group B; for Percentage inhibition of ligand binding, Adrenergic α1B (0.1 μM) / inhibition at 0.1 µM: 0.1 μM compound; for Percentage inhibition of ligand binding, Adrenergic α1B (0.3 μM) / inhibition at 0.3 µM: 0.3 μM compound; for inhibition at 0.1 µM: read-out: Percentage inhibition of ligand binding, Adrenergic α1B (0.1 μM); for inhibition at 0.3 µM: read-out: Percentage inhibition of ligand binding, Adrenergic α1B (0.3 μM)
T1 sequence (P35368 1-520): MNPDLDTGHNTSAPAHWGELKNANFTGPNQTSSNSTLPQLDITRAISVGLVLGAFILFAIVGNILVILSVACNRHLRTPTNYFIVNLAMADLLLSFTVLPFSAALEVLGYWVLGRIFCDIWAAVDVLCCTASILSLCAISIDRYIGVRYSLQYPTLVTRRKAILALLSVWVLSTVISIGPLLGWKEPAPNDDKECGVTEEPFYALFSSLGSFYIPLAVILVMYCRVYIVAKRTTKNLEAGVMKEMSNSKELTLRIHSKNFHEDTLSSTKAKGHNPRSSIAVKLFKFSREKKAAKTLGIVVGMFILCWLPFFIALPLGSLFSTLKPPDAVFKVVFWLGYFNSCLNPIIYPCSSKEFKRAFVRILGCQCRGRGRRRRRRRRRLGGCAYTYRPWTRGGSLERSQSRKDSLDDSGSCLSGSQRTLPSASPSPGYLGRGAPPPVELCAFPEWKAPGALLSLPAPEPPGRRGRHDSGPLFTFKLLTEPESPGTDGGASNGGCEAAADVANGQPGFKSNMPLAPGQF
Procedure, shortened: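 Recombinant human α1B membranes incubated with test compound and 0.3 nM [3H]prazosin, 60 min at 25 °C, in 50 mM Tris-HCl pH 7.4, 10 mM MgCl2, 1 mM EDTA; nonspecific binding with 10 μM prazosin. Filter-bound radioactivity counted; values are % inhibition of specific binding or estimated Ki.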

[2] = target: T2, Human adrenergic α2A receptor (Homo sapiens, UniProt P08913); experiment: Radioligand binding, adrenergic α2A (Protocol Group B); settings: Protocol Group B
T2 sequence (P08913 1-465): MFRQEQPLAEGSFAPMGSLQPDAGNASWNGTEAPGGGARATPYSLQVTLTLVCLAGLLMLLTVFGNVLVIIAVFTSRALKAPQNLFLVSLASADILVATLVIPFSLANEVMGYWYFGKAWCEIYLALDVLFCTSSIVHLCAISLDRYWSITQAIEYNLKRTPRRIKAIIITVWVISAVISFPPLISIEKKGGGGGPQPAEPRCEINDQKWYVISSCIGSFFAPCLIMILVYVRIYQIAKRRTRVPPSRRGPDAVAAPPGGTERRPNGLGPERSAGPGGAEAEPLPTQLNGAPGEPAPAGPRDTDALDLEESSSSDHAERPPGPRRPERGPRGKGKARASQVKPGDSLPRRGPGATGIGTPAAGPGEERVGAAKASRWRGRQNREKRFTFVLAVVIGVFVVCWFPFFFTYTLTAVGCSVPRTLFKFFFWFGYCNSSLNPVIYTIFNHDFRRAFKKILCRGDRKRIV
Procedure, shortened: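 Membranes from recombinant cells expressing the receptor, in 50 mM Tris-HCl pH 7.4 with 5 mM MgCl2, 1 mM CaCl2, 0.2% BSA; compounds incubated with 2 nM [^3H]MK-912 for 60 min at 25° C. Nonspecific binding defined by 10 μM rauwolscine; filtration, counting; percent inhibition of specific binding, or estimated Ki.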

[3] = target: T3, Human adrenergic α2B receptor (Homo sapiens, UniProt P18089); experiment: Radioligand binding, adrenergic α2B (Protocol Group B); settings: Protocol Group B; for Percentage inhibition of ligand binding, Adrenergic α2B (30 nM): 0.03 µM; for Percentage inhibition of ligand binding, Adrenergic α2B (10 nM): 0.01 µM; for Percentage inhibition of ligand binding, Adrenergic α2B (0.1 μM) / inhibition at 0.1 µM: 0.1 μM compound; for inhibition at 0.1 µM: read-out: Percentage inhibition of ligand binding, Adrenergic α2B (0.1 μM)
T3 sequence (P18089 1-450): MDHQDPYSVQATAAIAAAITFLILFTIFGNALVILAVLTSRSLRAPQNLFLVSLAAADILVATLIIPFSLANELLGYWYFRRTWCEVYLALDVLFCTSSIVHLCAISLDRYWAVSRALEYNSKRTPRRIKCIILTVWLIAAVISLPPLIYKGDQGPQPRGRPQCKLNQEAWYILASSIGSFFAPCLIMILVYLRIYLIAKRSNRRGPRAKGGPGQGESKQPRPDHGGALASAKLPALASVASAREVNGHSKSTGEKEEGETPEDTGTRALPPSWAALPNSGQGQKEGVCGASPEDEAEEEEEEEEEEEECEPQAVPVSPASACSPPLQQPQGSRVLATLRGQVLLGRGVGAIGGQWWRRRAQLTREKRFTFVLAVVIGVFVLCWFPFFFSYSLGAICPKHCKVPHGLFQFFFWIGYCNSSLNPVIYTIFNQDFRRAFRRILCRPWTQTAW
Procedure, shortened: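 Recombinant human α2B receptor membranes incubated with compounds in 50 mM Tris-HCl pH 7.4, 5 mM MgCl2, 1 mM CaCl2, 0.2% BSA, 1% DMSO vehicle. Non-specific binding defined with 10 μM rauwolscine. Values are percent inhibition of specific binding or estimated Ki.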

| Compound | Percentage inhibition of ligand binding, Adrenergic α1B (0.1 μM) [1] [%] | Percentage inhibition of ligand binding, Adrenergic α2A (0.1 μM) ([2]; 0.1 μM compound) [%] | Percentage inhibition of ligand binding, Adrenergic α2B (30 nM) ([3]; 30 nM compound) [%] | Percentage inhibition of ligand binding, Adrenergic α1B (0.3 μM) [1] [%] | Percentage inhibition of ligand binding, Adrenergic α2A (0.3 μM) ([2]; 0.3 μM compound, 0.3 µM) [%] | Percentage inhibition of ligand binding, Adrenergic α2B (10 nM) ([3]; 10 nM compound) [%] | Percentage inhibition of ligand binding, Adrenergic α2B (0.1 μM) [3] [%] | inhibition at 0.1 µM [1] [%] | inhibition at 0.3 µM [1] [%] | inhibition at 0.1 µM [3] [%] | inhibition at 0.1 µM ([2]; 0.1 μM compound, read-out: Percentage inhibition of ligand binding, Adrenergic α2A (0.1 μM)) [%] | inhibition at 0.3 µM ([2]; 0.3 μM compound, read-out: Percentage inhibition of ligand binding, Adrenergic α2A (0.3 μM)) [%] | inhibition at 0.01 µM ([3]; 10 nM compound, read-out: Percentage inhibition of ligand binding, Adrenergic α2B (10 nM)) [%] | inhibition at 0.03 µM ([3]; 30 nM compound, read-out: Percentage inhibition of ligand binding, Adrenergic α2B (30 nM)) [%] | Percentage inhibition of ligand binding, Adrenergic α2A (0.3 μM) ([2]; 0.3 μM compound) [%] | Ki ([3]; estimated Ki, read-out: Ki α2B) [nM] |
| --- | --- | --- | --- | --- | --- | --- | --- | --- | --- | --- | --- | --- | --- | --- | --- | --- |
| Cc1cc(F)cc2c3c(n(CC(O)c4ccncc4)c12)CCN1CCCC31 (single isomer, unassigned) [136d] | −2 | −12 | −8 | – | – | – | – | – | – | – | – | – | – | – | – | – |
| Cc1cc(C)c2c(c1)c1c(n2CC(C)(O)c2ccncc2)CCN2CCCC12 (single isomer, unassigned) [19d] | −8 | −8 | −4 | −5 | −5 | −9 | −1 | – | – | – | – | – | – | – | – | – |
| Cc1ccc2c(c1)c1c(n2CC(C)(O)c2cccnc2)CC2CCCN2C1 (centres unmarked) [38a] | 14 | −2 | 11 | 21 | 11 | −2 | 30 | – | – | – | – | – | – | – | – | – |
| CC(O)(Cn1c2c(c3cc(F)ccc31)C1CCCN1CC2)c1cccnc1 (centres unmarked) [57a] | −4 | −12 | 0 | −4 | −11 | −7 | 14 | – | – | – | – | – | – | – | – | – |
| Cc1ccc2c(c1)c1c(n2CC(C)(O)c2cnc3ccccc3c2)CCN(C)C1 (centres unmarked) [compound 32] | – | 5 | 34 | – | 31 | 14 | – | -1 | 18 | 69 | – | – | – | – | – | – |
| CC(O)(Cn1c2c(c3cc(Cl)cc(F)c31)CN1CCCC1C2)c1cccnc1 (single isomer, unassigned) [63d] | −5 | −13 | 5 | −4 | −12 | −10 | – | – | – | – | – | – | – | – | – | – |
| Cc1ccc2c(c1)c1c(n2CC(C)(O)c2ccc(OCC3CC3)nc2)CCN(C)C1 (centres unmarked) [compound 56, 2-(6-(cyclopropylmethoxy)pyridin-3-yl)-1-(2,8-dimethyl-3,4-dihydro-1H-pyrido[4,3-b]indol-5(2H)-yl)propan-2-ol] | – | – | – | – | – | – | – | 12 | 38 | 74 | 1 | 9 | 17 | 48 | – | – |
| Cc1ccc2c(c1)c1c(n2CC(C)(O)c2ccc(F)cc2)CN2CCC1C2 (single isomer, unassigned) [134c] | 8 | 4 | 8 | – | – | – | – | – | – | – | – | – | – | – | – | – |
| CC(O)(Cn1c2c(c3cc(F)ccc31)C1CCCN1CC2)c1cccnc1 (centres unmarked) [57b] | −10 | −6 | −4 | −7 | −7 | −7 | 8 | – | – | – | – | – | – | – | – | – |
| Cc1ccc2c(c1)c1c(n2CC(C)(O)c2cccnc2)CCN(C)C1CO (single isomer, unassigned) [16b] | −3 | −2 | −11 | 5 | 10 | 4 | 7 | – | – | – | – | – | – | – | – | – |
| Cc1ccc2c(c1)c1c(n2CC(O)c2ccccn2)CC2CCCN2C1 (single isomer, unassigned) [45a] | 12 | −1 | 16 | 35 | 12 | −4 | 43 | – | – | – | – | – | – | – | – | – |
| Cc1ccc2c(c1)c1c(n2CC(O)c2ccncc2)CN(C)C2CCCC12 (single isomer, unassigned) [36b] | 0 | −7 | −14 | 5 | – | −19 | −10 | – | – | – | – | – | – | – | −5 | – |
| OC(Cn1c2c(c3cc(Cl)ccc31)C1CCCN1CC2)c1ccncc1 (single isomer, unassigned) [143d] | 15 | 7 | 4 | – | – | – | – | – | – | – | – | – | – | – | – | – |
| CC(O)(Cn1c2c(c3cc(Cl)cc(F)c31)C1CCCN1CC2)c1cccnc1 (single isomer, unassigned) [53b] | 4 | 34 | 91 | 33 | 54 | 74 | 97 | – | – | – | – | – | – | – | – | 1.8 |
